The text below walks through data of PubChem BioAssay (NCI).

Assay in all cases: growth of human tumour cells (NCI), 48 h
Assay [1] relates to U251 CNS.
For assay [2], the system named is SK-OV-3 ovarian.
For assay [3], the system named is NCI-H522 lung.
Assay [4] relates to NCI/ADR-RES ovarian.
The subject of assay [5] is SN12C renal.
Assay [6] concerns SR leukemia.
Assay [7] relates to PC-3 prostate.
The test system of assay [8] is HOP-62 NSCLC.
The subject of assay [9] is UACC-257 melanoma.
The subject of assay [10] is COLO 205 colon.

Several values for one entry are separate records, joined by “and”; a condition that tells them apart may be missing. Equal values may be shown once.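 Results reflect a 48-hour exposure of cells in 96-well plates to compound at five concentrations. GI50 is the concentration that inhibits growth by half. TGI: total growth inhibition.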 Bounds are passed on as bounds.

In the case of `CC(C)(C)c1cc(-c2nc3c(F)c(F)c(F)c(F)c3[nH]2)cc(C(C)(C)C)c1O`, the GI50 is > 100000 nM in assay [1]; > 100000 nM in assay [2]; > 100000 nM in assay [3]; > 100 µM in assay [4]; > 100000 nM in assay [5]; 38000 nM in assay [6]. For the same compound, the GI50 in assay [7] is > 100000 nM; in assay [8], > 100000 nM; in assay [9] it was > 100000 nM; in assay [10], > 100 µM. The TGI in assay [1], in [2], in assay [3], in assay [4], in assay [5] and in [6] was > 100 µM each time. The TGI in assay [7], in assay [8], in assay [9] and in [10] was > 100 µM in each case.

Consider `Cc1nc2sc(C(=O)Nc3cccc(Br)c3)c(N)c2cc1C(O)c1ccccc1` (centres undefined), for which the GI50 in [1] was 520 nM; in [2] it was 1760 nM; in assay [3] it was 726 nM; in assay [4], 0.619 µM; in assay [5] it was 894 nM; in assay [6], 301 nM. For the same compound, the GI50 in assay [7] was 2890 nM; in assay [8], 1570 nM; in [9], 847 nM; in assay [10], 3.61 µM. In addition, the TGI is > 70.9 µM in assay [1]; 19.1 µM in assay [2]; > 28.4 µM in [3]; 8.47 µM in assay [4]; 13.3 µM in assay [5]; > 37.3 µM in [6]. The TGI stood at 31 µM in assay [7], 32.4 µM in [8], 25.2 µM in assay [9] and 20.2 µM in assay [10].

With `Oc1c(CN2CCN(c3ccccc3F)CC2)cc(Br)c2cccnc12`, the GI50 in assay [1] is 529 nM; in assay [2] it was 1450 nM; in [3] it was 662 nM; in [4], 0.224 µM; in assay [5] it was 987 nM; in assay [6], 419 nM. Besides, the GI50 in assay [7] was 807 nM; in [8], 596 nM; in assay [9], 2060 nM; in assay [10] it was 16.1 µM. The TGI is 11.1 µM in assay [1]; 27.9 µM in assay [2]; 5.05 µM in assay [3]; 21.9 µM in assay [4]; 20.5 µM in assay [5]; 5.17 µM in assay [6]. Besides, the TGI in assay [7] is 31.7 µM; in assay [8], 14.2 µM; in assay [9] it was 24.1 µM; in assay [10], 55 µM.

As to `Cc1ccc(C2=NN(c3ccc(S(N)(=O)=O)cc3)C(c3cn(-c4ccccc4)nc3-c3ccccc3)C2)cc1` (centres undefined), the GI50 in assay [1] was 19600 nM; in assay [2] it was > 100000 nM; in [3], 25100 nM; in assay [4], 11.1 µM; in [5], 2230 nM; in assay [6], 5920 nM. For the same compound, the GI50 in assay [7] was 3320 nM; in [8], > 100000 nM; in assay [9], 29600 nM; in [10], 15.1 µM. In addition, the TGI in assay [1] is > 100 µM; in assay [2], > 100 µM; in assay [3], > 100 µM; in assay [4] it was > 100 µM; in assay [5], 5 µM; in assay [6], > 100 µM. Moreover, the TGI in [7], in [8], in assay [9] and in [10] was > 100 µM throughout.

Regarding `O=C(NCCCCCCNC(=O)OCc1ccc2c(Cl)cc(Cl)c(O)c2n1)OCc1ccc2c(Cl)cc(Cl)c(O)c2n1`, the GI50 in assay [1] was 1440 nM; in assay [2], 5500 nM; in assay [3] it was 460 nM; in assay [4], 0.518 µM; in assay [5] it was 957 nM; in assay [6] it was 357 nM. The GI50 in assay [7] is 815 nM; in [8] it was 1700 nM; in [9] it was 1300 nM; in [10] it was 0.589 µM. In addition, the TGI in assay [1] came out at 2.92 µM; in [2] it was 17.9 µM; in assay [3], 2.1 µM; in assay [4], 6.58 µM; in [5], 2.25 µM; in assay [7], 2.42 µM. For the same compound, the results for the TGI in [8], in assay [9] and in [10] were 4.22 µM, 2.77 µM and 2.19 µM, respectively.

For the compound `CCN(CC)CC[n+]1cc2cc(OC)c(OC)cc2c2ccc3cc4c(cc3c21)OCO4`, the GI50 is 308 nM in [1]; 520 nM in assay [2]; 255 nM in assay [3]; 3.72 µM in assay [4]; 309 nM in [5]; 248 nM in [6]. In addition, the GI50 was 395 nM in assay [7], 354 nM in assay [8], 1450 nM in [9] and 0.418 µM in [10]. Further, the TGI in assay [1] was 1.29 µM; in assay [2] it was 2.08 µM; in assay [3], 1.05 µM; in [4] it was 22 µM; in assay [5], 1.21 µM; in assay [6], 2.12 µM. The TGI in assay [7] is 2.25 µM; in assay [8], 1.93 µM; in [9], 3.36 µM; in assay [10], 2.48 µM.

Regarding `CNC(=O)CN1CCC(Oc2cc3c(Nc4cccc(Cl)c4F)ncnc3cc2OC)CC1`, the GI50 in assay [1] was 17000 nM and > 6470 nM; in assay [2] it was 167 nM and 153 nM; in [3] it was 143 nM and 61.4 nM; in assay [4] it was 11.4 µM and > 6.36 µM; in assay [5], 2960 nM and 3420 nM; in assay [6], 21100 nM and 2190 nM. Moreover, the GI50 was 17500 nM and > 8300 nM in assay [7]; 7910 nM and 3950 nM in [8]; 13700 nM and > 10000 nM in assay [9]; 13.9 µM and > 4.66 µM in [10]. Besides, the TGI was 45.9 µM and > 10 µM in assay [1]; 5.73 µM and 1.82 µM in assay [2]; 20.4 µM and > 10 µM in assay [3]; 66.4 µM and > 10 µM in assay [4]; > 100 µM in assay [5]; > 70.1 µM and 8.97 µM in [6]. Further, the TGI in assay [7] was > 69.1 µM; in assay [8], 70.4 µM and > 10 µM; in assay [9] it was 29.2 µM and > 10 µM; in assay [10], 29 µM and > 8.92 µM.

For `CCCCCC/C=C1\CCC(CN(C)C)C1=O` (centres undefined), the TGI in assay [1] is 9.47 µM; in assay [2] it was 34.7 µM; in assay [3], 6.28 µM; in assay [4], 44.4 µM; in assay [5], 8.74 µM; in assay [6], 11.7 µM. For the same compound, the TGI turned out to be 24 µM in [7], 35.1 µM in assay [8], 17.7 µM in [9] and 8.4 µM in assay [10].
